Columns and labels:
LoVo cells [1] = experiment: Cell apoptosis analysis (Annexin V-PE/7-AAD flow cytometry); type: cell-based, human
Protocol: LoVo cells (1 × 10^5 cells/well) were seeded into a 6-well plate and incubated at 37 °C and 5% CO2 atmosphere overnight. The seeded cells were then treated with different concentrations of tested compounds for 24, 48 and 72 h. After treatments, cells were trypsinized and washed with PBS followed by the addition of 1× binding buffer (500 μL), Annexin V-PE (5 μL) and 7-AAD (5 μL) solutions. The resulting mixture was then incubated in the dark at 4 °C for 20 min. Upon completion, the mixture was analysed with a flow-cytometer at the PE and APC channel. The values presented are the means ± SD of three independent experiments.

LoVo cells [2] = experiment: MTT cytotoxicity assay, LoVo cells; type: cell-based; conditions: Homo sapiens, 72 h post-treatment, read-out: IC50 (µM) KRAS LoVo
Protocol: The in-vitro cytotoxic activity of the synthesized compounds on seven human CRC cell lines including KRAS (T84, SW620, LoVo) and BRAF (HT29, NCI-H508, RKO and LS411N) mutated cells were determined by MTT assay as previously described. The IC50 values obtained are summarized in Table 2 in which 5-FU and normal human dermal fibroblasts (NHDF) were used as controls. Meanwhile, a heatmap (Figure 3) was also generated using GraphPad Prism v7.0 (GraphPad Software, La Jolla, CA, USA) to visualize the cytotoxic trends of synthesized compounds graphically.
A panel of KRAS (T84, SW620 and LoVo) and BRAF (HT29, NCI-H508, RKO and LS411N) mutated human CRC cell lines were grown in Dulbecco’s modified Eagle’s medium (DMEM) containing 10% fetal bovine serum (FBS) and 1% penicillin/streptomycin at 37 °C under 5% CO2 while NHDF cells were cultured in DMEM with 5% FBS under the same condition. The culture medium was replenished every two days until the cells reached 80–90% confluency for further usage. All cell lines (T84, ATCC®CCL-248™; SW620, ATCC®CCL-227™; LoVo, ATCC®CCL-229™; HT-29, ATCC®HTB-38; NCI-H508, ATCC®CCL-253™; RKO, ATCC®CRL-2577; LS411N, ATCC®CRL-2159; NHDF, ATCC® PCS-201-010™) were purchased from American Type culture Collections (ATCC, Manassas, VA, USA).
LoVo cells (1.5–5 × 10^3 cells/well) were seeded into a 96 well plate and incubated at 37 °C and 5% CO2 atmosphere for 24 h. On the following day, the cell media were replaced with 100 µL of test compounds at various concentration. The final concentration of DMSO in the well is 0.1%. After 72 h of incubation, culture medium was removed and 100 µL of MTT (thiazoyl blue tertrazolium bromide) solution (0.5 mg/mL in culture media) was added. The resultant plates were then further incubated at 37 °C for 4 h. Upon completion, the MTT solution was removed and the formazan salts formed were dissolved in 100 µL of DMSO. The absorbance was recorded with a microplate reader at 570 nm. The IC50 values of tested compounds were calculated from three independent experiments.

Question: For `O=C1C(=Cc2ccccc2Br)CSCC1=Cc1ccccc1Br` [Compound 2e, 3,5-Bis(2-bromobenzylidene)tetrahydro-4H-thiopyran-4-one], which “lowest in vitro effective dose against LoVo cells” value (LoVo cells [1]) is on record?
Answer: 2.5 µM

Question: What about the “cellular apoptosis (annexin V)” value (LoVo cells [1]; 0.625 and 1.25 µM) of the same compound?
Answer: minimal insignificant effects

Question: And the “cellular apoptosis (annexin V)” value (LoVo cells [1]; 2.5 and 5 µM, 24-72 h)?
Answer: could induce cellular apoptosis

Question: What about the IC50 (LoVo cells [2]) of the same compound?
Answer: 1 µM
